This is an account of results in patent US11931569B2, “Method for changing blood brain barrier permeability” (TEL HASHOMER MEDICAL RESEARCH, INFRASTRUCTURE AND SERVICES …, priority 2018, dated 2024).

One series concerns CNS-1 glioma cell line. The experiment in a line: efficacy of Paclitaxel across the in vitro BBB model after PEF application (glioma confluency). It is filed as cell-based. The conditions noted are these: 200 nM Paclitaxel on apical side, 2 h with insert, followed 3 days. As to the method:
Reference is made to FIG. 5A. To study the effect of PEFs application on BBB permeability for Paclitaxel (Taxol®), the in vitro BBB model 100 as shown FIG. 2A was modified by seeding a CNS-1 glioma cell line 254 on a bottom surface 103 of cell culture well 101 (40,000 cells per well), into which the BLEC co-culture system grown on membrane 204 of Transwell insert 200 was also grown. When the glioma cell line was at about 16±0.5% confluency, 200 nM Paclitaxel was added into ECM media 102 in the apical side of Transwell insert 200 and PEFs were applied at one of various settings, then incubated for 2 hours after which time the Transwell insert was removed. […] Glioma cell line 254 was then further incubated for three days and the level of confluency was measured at 2 hours, 1 day, 2 days, and 3 days following Paclitaxel administration.
The results as shown by way of example in FIG. 5B indicate that low pulse-count, low frequency, low EF strength PEFs induce sufficient BBB disruption to allow a therapeutic dose of Paclitaxel to traverse the in vitro BBB model and reach the glioma cell line.

Series [1] relates to in vitro BBB model (CD34+-derived ECs co-cultured with bovine brain pericytes on Transwell inserts). Format: in vitro ADME, human. As to the method: Reference is made to FIG. 2A that schematically illustrates an in vitro BBB model 100 grown in Transwell inserts 200 (3401-Costar, Corning, USA). The in vitro human BBB model was generated as follows: CD34^+-derived ECs 250 were seeded onto matrigel-coated (BD Biosciences, USA) apical side 206 of a Transwell insert membrane 204. Primary bovine brain pericytes 252 were seeded on the gelatin-coated basolateral side 208 of the same Transwell inserts 2-24 h before the seeding of the ECs. […]
PEFs were applied to Transwell inserts 200 using an electroporator power supply (BTX 830; Harvard Apparatus, Holliston, MA). […] Given the parameters of the electrode and based on a finite elements model of the described system, the EF generated between the electrodes by the applied voltage can be approximated as uniform across the ECs monolayer and can be calculated by dividing the Voltage by the electrodes distance. […]
50 μl of a solution containing 0.5 mg/ml NaF in PBS was added to the luminal (apical) side of each Transwell insert 200 one minute prior to PEFs application. […] A sample of medium 102 collected from under basolateral side 208 was collected and the samples' fluorescence was measured using TECAN pro200 plate reader (485/538 nm excitation/emission). […]

With `CC(=O)O[C@H]1C(=O)[C@@]2(C)[C@H]([C@H](OC(=O)c3ccccc3)[C@]3(O)C[C@H](OC(=O)[C@H](O)[C@@H](NC(=O)c4ccccc4)c4ccccc4)C(C)=C1C3(C)C)[C@]1(OC(C)=O)CO[C@@H]1C[C@@H]2O` [Paclitaxel], the “glioma cell growth / confluency” value in the series on CNS-1 glioma cell line (10 pulses, 74 V/cm, 1 Hz) is given as “substantially disrupt its growth”; with CNS-1 glioma cell line (20 pulses, 30 V/cm, 1 Hz), “glioma growth was not significantly retarded”; in the series on CNS-1 glioma cell line (99 pulses, 30 V/cm, 1 Hz), “level of retardation of glioma growth was equivalent to application of 10 pulses of PEFs at a field strength of 74 V/cm”; in the series on CNS-1 glioma cell line (control, no PEF application), “reach full confluency after 3 days”.
`O=C([O-])c1ccccc1-c1c2ccc(=O)cc-2oc2cc([O-])ccc12.[Na+].[Na+]` [NaF, sodium fluorescein] gave an increase in permeability in series [1] of 40±9%.
